Literature values, collected in US7324926B2, “Methods for predicting chemosensitivity or chemoresistance” (Whitehead Institute for Biomedical Research, priority 1999, dated 2008).

What was measured:
[1] = tested on: central nervous system (CNS) cell lines; conditions: CNS cell lines of the NCI-60 panel; sensitive = log10(GI50) at least 0.8 SD below the mean
[2] = tested on: ovarian cancer cell lines; conditions: ovarian cancer cell lines of the NCI-60 panel; resistant = log10(GI50) at least 0.8 SD above the mean

C=C1[C@@H](C)[C@H]2[C@H](Cc3ccccc3)NC(=O)[C@]23[C@H](OC(C)=O)/C=C/[C@@](C)(O)C(=O)[C@@H](C)C/C=C/[C@H]3[C@@H]1O [cytochalasin D, Cytochalasin D]
cytochalasin D sensitivity class of cell lines (from GI50) [1]: sensitive | cytochalasin D sensitivity class of cell lines (from GI50) [2]: resistant
